biological target: T1, human complement factor D (Homo sapiens, UniProt P00746); assay: In vitro enzyme inhibition (Z-Lys-SBzl/DTNB absorbance assay); format: biochemical; details: Complement Factor D (R&D Systems), substrate Z-Lys-SBzl, A405 nm; read-out: CFD IC50
T1 construct: purchased R&D Systems 1824-SE
Summary of the method: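 Factor D (6.25 ng/μL before addition) preincubated 5 min RT with compound (8 points from 50 μM, 6-fold, 0.5% DMSO final) in 50 mM Tris/HCl pH 7.5, 1 M NaCl, then Z-Lys-SBzl/DTNB added (200 μM each before addition). A405 read kinetically every 30 s for 60 min; IC50 from variable-slope fit, controls with and without enzyme.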

T1 sequence (P00746 26-253): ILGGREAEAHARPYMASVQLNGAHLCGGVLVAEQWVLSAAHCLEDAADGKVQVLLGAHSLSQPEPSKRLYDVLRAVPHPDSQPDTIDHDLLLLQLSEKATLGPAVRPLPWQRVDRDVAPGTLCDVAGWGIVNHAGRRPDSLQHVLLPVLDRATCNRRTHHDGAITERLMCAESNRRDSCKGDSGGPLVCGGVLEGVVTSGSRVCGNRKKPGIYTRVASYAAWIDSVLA

Row | SMILES | IC50 [nM]
1 | COC(=O)c1nn(CC(=O)N2[C@@H]3CC[C@@H](C3)[C@H]2C(=O)Nc2cccc(Cl)n2)c2ccccc12 [Example 82, methyl 1-(2-((1R,3S,4S)-3-((6-chloropyridin-2-yl)carbamoyl)-2-azabicyclo[2.2.1]heptan-2-yl)-2-oxoethyl)-1H-indazole-3-carboxylate] | 1000 to 10000
2 | CC(=O)c1nn(CC(=O)N2[C@@H]3CC[C@@H](C3)[C@H]2C(=O)Nc2cccc(Cl)n2)c2ccc(C)cc12 [Example 83, (1R,3S,4S)-2-(2-(3-acetyl-5-methyl-1H-indazol-1-yl)acetyl)-N-(6-chloropyridin-2-yl)-2-azabicyclo[2.2.1]heptane-3-carboxamide] | 100 to 1000
3 | O=C(O)c1nn(CC(=O)N2[C@@H]3CC[C@@H](C3)[C@H]2C(=O)Nc2cccc(Cl)n2)c2ccccc12 [Example 84, 1-(2-((1R,3S,4S)-3-((6-chloropyridin-2-yl)carbamoyl)-2-azabicyclo[2.2.1]heptan-2-yl)-2-oxoethyl)-1H-indazole-3-carboxylic acid] | > 10000
4 | CC(O)c1nn(CC(=O)N2[C@@H]3CC[C@@H](C3)[C@H]2C(=O)Nc2cccc(Cl)n2)c2ccccc12 (stereo partly drawn) [Example 85, (1R,3S,4S)-N-(6-chloropyridin-2-yl)-2-(2-(3-(1-hydroxyethyl)-1H-indazol-1-yl)acetyl)-2-azabicyclo[2.2.1]heptane-3-carboxamide] | > 10000
5 | O=C(Nc1cccc(Cl)n1)[C@@H]1[C@H]2CC[C@H](C2)N1C(=O)Cn1nc(C(=O)N2CCC2)c2ccccc21 [Example 86, (1R,3S,4S)-2-(2-(3-(azetidine-1-carbonyl)-1H-indazol-1-yl)acetyl)-N-(6-chloropyridin-2-yl)-2-azabicyclo[2.2.1]heptane-3-carboxamide] | > 10000
6 | CC(=O)c1nn(CC(=O)N2[C@@H]3CC[C@@H](C3)[C@H]2C(=O)Nc2cccc(Cl)n2)c2ccc(Cl)cc12 [Example 87, (1R,3S,4S)-2-(2-(3-acetyl-5-chloro-1H-indazol-1-yl)acetyl)-N-(6-chloropyridin-2-yl)-2-azabicyclo[2.2.1]heptane-3-carboxamide] | 100 to 1000
7 | CNC(=O)c1nn(CC(=O)N2[C@@H]3CC[C@@H](C3)[C@H]2C(=O)Nc2cccc(Cl)n2)c2ccccc12 [Example 88, 1-(2-((1R,3S,4S)-3-((6-chloropyridin-2-yl)carbamoyl)-2-azabicyclo[2.2.1]heptan-2-yl)-2-oxoethyl)-N-methyl-1H-indazole-3-carboxamide] | 1000 to 10000
8 | O=C(NCCO)c1nn(CC(=O)N2[C@@H]3CC[C@@H](C3)[C@H]2C(=O)Nc2cccc(Cl)n2)c2ccccc12 [Example 89, 1-(2-((1R,3S,4S)-3-((6-chloropyridin-2-yl)carbamoyl)-2-azabicyclo[2.2.1]heptan-2-yl)-2-oxoethyl)-N-(2-hydroxyethyl)-1H-indazole-3-carboxamide] | 1000 to 10000
9 | CC(=O)c1nn(CC(=O)N2[C@@H]3CC[C@@H](C3)[C@H]2C(=O)Nc2cccc(Cl)n2)c2ccc(Br)cc12 [Example 90, (1R,3S,4S)-2-(2-(3-acetyl-5-bromo-1H-indazol-1-yl)acetyl)-N-(6-chloropyridin-2-yl)-2-azabicyclo[2.2.1]heptane-3-carboxamide] | 100 to 1000
10 | CC(=O)c1nn(CC(=O)N2[C@@H]3CC[C@@H](C3)[C@H]2C(=O)Nc2cccc(Cl)n2)c2ccc(F)cc12 [Example 91, (1R,3S,4S)-2-(2-(3-acetyl-5-fluoro-1H-indazol-1-yl)acetyl)-N-(6-chloropyridin-2-yl)-2-azabicyclo[2.2.1]heptane-3-carboxamide] | 100 to 1000
11 | CC(=O)c1nn(CC(=O)N2[C@@H]3CC[C@@H](C3)[C@H]2C(=O)Nc2cccc(Cl)n2)c2ccc(C#N)cc12 [Example 92, (1R,3S,4S)-2-(2-(3-acetyl-5-cyano-1H-indazol-1-yl)acetyl)-N-(6-chloropyridin-2-yl)-2-azabicyclo[2.2.1]heptane-3-carboxamide] | 100 to 1000
12 | NC(=O)Cc1nn(CC(=O)N2[C@@H]3CC[C@@H](C3)[C@H]2C(=O)Nc2cccc(Cl)n2)c2ccccc12 [Example 94, (1R,3S,4S)-2-(2-(3-(2-amino-2-oxoethyl)-1H-indazol-1-yl)acetyl)-N-(6-chloropyridin-2-yl)-2-azabicyclo[2.2.1]heptane-3-carboxamide] | 1000 to 10000
13 | NC(=O)c1nn(CC(=O)N2[C@@H]3CC[C@@H](C3)[C@H]2C(=O)Nc2cccc(Cl)n2)c2ccncc12 [Example 95, 1-(2-((1R,3S,4S)-3-((6-chloropyridin-2-yl)carbamoyl)-2-azabicyclo[2.2.1]heptan-2-yl)-2-oxoethyl)-1H-pyrazolo[4,3-c]pyridine-3-carboxamide] | 100 to 1000
14 | COc1cc(Cl)nc(NC(=O)[C@@H]2[C@H]3CC[C@H](C3)N2C(=O)Cn2nc(C(N)=O)c3ccccc32)c1 [Example 97, 1-(2-((1R,3S,4S)-3-((6-chloro-4-methoxypyridin-2-yl)carbamoyl)-2-azabicyclo[2.2.1]heptan-2-yl)-2-oxoethyl)-1H-indazole-3-carboxamide] | 100 to 1000
15 | NC(=O)c1nn(CC(=O)N2[C@@H]3CC[C@@H](C3)[C@H]2C(=O)NCc2cccc(Cl)c2F)c2ccncc12 [Example 98, 1-(2-((1R,3S)-3-((3-chloro-2-fluorobenzyl)carbamoyl)-2-azabicyclo[2.2.1]heptan-2-yl)-2-oxoethyl)-1H-pyrazolo[4,3-c]pyridine-3-carboxamide] | 1000 to 10000
16 | NC(=O)n1cc(CC(=O)N2[C@@H]3CC[C@@H](C3)[C@H]2C(=O)NCc2cccc(Cl)c2F)c2ccccc21 [Example 99, 3-(2-((1R,3S,4S)-3-((3-chloro-2-fluorobenzyl)carbamoyl)-2-azabicyclo[2.2.1]heptan-2-yl)-2-oxoethyl)-1H-indole-1-carboxamide] | 100 to 1000
17 | NC(=O)n1nc(CC(=O)N2[C@@H]3CC[C@@H](C3)[C@H]2C(=O)NCc2cccc(Cl)c2F)c2ccccc21 [Example 100, 3-(2-((1R,3S,4S)-3-((3-chloro-2-fluorobenzyl)carbamoyl)-2-azabicyclo[2.2.1]heptan-2-yl)-2-oxoethyl)-1H-indazole-1-carboxamide] | 100 to 1000
18 | N#Cc1ccc(Cl)nc1NC(=O)[C@@H]1[C@H]2CC[C@H](C2)N1C(=O)Cn1nc(C(N)=O)c2ccccc21 [Example 101, 1-(2-((1R,3S,4S)-3-((6-chloro-3-cyanopyridin-2-yl)carbamoyl)-2-azabicyclo[2.2.1]heptan-2-yl)-2-oxoethyl)-1H-indazole-3-carboxamide] | 100 to 1000
19 | N#Cc1cc(Cl)nc(NC(=O)[C@@H]2[C@H]3CC[C@H](C3)N2C(=O)Cn2nc(C(N)=O)c3ccccc32)c1 [Example 102, 1-(2-((1R,3S,4S)-3-((6-chloro-4-cyanopyridin-2-yl)carbamoyl)-2-azabicyclo[2.2.1]heptan-2-yl)-2-oxoethyl)-1H-indazole-3-carboxamide] | 100 to 1000
20 | COC(=O)c1cc(Cl)nc(NC(=O)[C@@H]2[C@H]3CC[C@H](C3)N2C(=O)Cn2nc(C(N)=O)c3ccccc32)c1 [Example 103, methyl 2-((1R,3S,4S)-2-(2-(3-carbamoyl-1H-indazol-1-yl)acetyl)-2-azabicyclo[2.2.1]heptane-3-carboxamido)-6-chloroisonicotinate] | 100 to 1000
